The target in one assay is T1, PI3Kγ (Homo sapiens, UniProt P48736).
T1 construct: purchased Invitrogen (US)
T1 sequence (P48736 whole entry): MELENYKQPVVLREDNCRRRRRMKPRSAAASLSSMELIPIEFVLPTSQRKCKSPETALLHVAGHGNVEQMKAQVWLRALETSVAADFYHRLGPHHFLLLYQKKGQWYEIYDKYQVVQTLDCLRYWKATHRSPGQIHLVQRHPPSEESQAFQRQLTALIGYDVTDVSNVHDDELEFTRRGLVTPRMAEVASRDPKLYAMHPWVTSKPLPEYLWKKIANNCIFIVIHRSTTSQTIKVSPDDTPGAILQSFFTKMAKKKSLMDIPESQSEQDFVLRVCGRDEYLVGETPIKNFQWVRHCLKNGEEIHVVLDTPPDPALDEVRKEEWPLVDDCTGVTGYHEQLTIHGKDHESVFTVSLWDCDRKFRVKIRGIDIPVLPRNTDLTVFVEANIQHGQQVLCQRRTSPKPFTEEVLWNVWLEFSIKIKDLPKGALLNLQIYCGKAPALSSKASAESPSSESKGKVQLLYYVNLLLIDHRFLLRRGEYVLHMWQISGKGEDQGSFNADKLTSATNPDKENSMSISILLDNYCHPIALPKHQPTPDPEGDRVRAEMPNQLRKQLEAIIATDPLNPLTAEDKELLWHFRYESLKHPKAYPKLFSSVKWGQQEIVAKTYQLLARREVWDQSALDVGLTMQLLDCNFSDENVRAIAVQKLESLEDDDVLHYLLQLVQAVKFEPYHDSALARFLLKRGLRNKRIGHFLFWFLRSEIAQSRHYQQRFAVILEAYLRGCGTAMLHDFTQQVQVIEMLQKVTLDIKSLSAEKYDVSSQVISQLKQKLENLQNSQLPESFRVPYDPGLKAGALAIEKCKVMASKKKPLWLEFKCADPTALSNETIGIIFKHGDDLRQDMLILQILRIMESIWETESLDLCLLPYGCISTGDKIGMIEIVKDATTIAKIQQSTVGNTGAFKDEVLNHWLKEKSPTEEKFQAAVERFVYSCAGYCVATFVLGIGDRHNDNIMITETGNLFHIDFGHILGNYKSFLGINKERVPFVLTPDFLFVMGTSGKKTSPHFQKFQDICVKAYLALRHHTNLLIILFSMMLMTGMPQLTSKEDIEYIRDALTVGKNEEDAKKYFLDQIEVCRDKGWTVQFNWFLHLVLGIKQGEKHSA
As to the kind of experiment: In vitro enzyme activity (ADP-Glo) against PI3Kγ. Format: biochemical. Conditions: Table 3; ATP 50 μM, PIP2:PS 50 μM; read-out: IC50 PIK3γ. On the procedure: (§1) In vitro enzyme activity experiments were performed to determine the IC50 values of the compounds against PI3K family type I kinases (PI3Kα, PI3Kβ, PI3Kγ, PI3Kδ) and type II kinases (PIK3C2A, PIK3C2B). Protein kinases PI3Kα, PI3Kγ, PI3Kδ, PIK3C2A, and PIK3C2B were all purchased from Invitrogen (US); protein kinase PI3Kβ was purchased from sigma (US); the three substrates PIP2: PS, PI and PI: PS were purchased from Invitrogen (US).
(§2) Protein kinases diluted to a certain concentration, i.e., PI3Kα 5.4 μL (with a final concentration of 0.16 ng/μL), PI3Kβ 5.4 μL (with a final concentration of 6 ng/μL), PI3Kδ 5.4 μL (with a final concentration of 1 ng/μL), PI3Kγ 5.4 μL (with a final concentration of 5 ng/μL), PIK3C2A 5.4 μL (with a final concentration of 5 ng/μL), and PIK3C2B 5.4 μL (with a final concentration of 10 ng/μL) were respectively reacted with 1 μL of the serially diluted drug compounds for 1 hour at room temperature (final drug concentrations were 10 μM, 1 μM, 0.3 μM, 0.1 μM, 0.03 μM, 0.01 μM, 0.003 μM, and 0.001 μM, respectively).
(§3) To each reaction tube of the above PI3K family type I kinases, 6 μL of a mixture of ATP (Promega, US) and substrate PIP2:PS (final concentrations of ATP in the reaction systems of kinases PI3Kα, and PI3Kβ were 10 μM, and final concentrations of ATP in the reaction systems of kinases PI3Kδ, and PI3Kγ were 50 μM, and final concentrations of the substrate PIP2:PS were all 50 μM) was added, and reacted at 37° C. for 1 hour. The reaction buffer was 50 mM Hepes (pH 7.5) (Promega, USA), 3 mM MgCl2, 1 mM EGTA (Promega, US), 100 mM NaCl, 0.03% CHAPS (Promega, US).
(§4) 5 μL of kinase solution after reaction was placed in a 384-well plate (Corning, US), and 5 μL of ADP-Glo™ reagent (Promega, US) was added thereto and reacted at room temperature for 40 minutes to stop the kinase reaction and exhaust the remaining ATP; 10 μL of kinase detection reagent was added to convert ADP into ATP, and coupled luciferase/luciferin reaction was utilized to detect the newly synthesized ATP. Envision was utilized for readout and plotting, and Graphpad IC50 value was calculated.
(In general: ADP-Glo first removes unused ATP, then detects ADP through luciferase.)
T3 sequence (P42338 whole entry): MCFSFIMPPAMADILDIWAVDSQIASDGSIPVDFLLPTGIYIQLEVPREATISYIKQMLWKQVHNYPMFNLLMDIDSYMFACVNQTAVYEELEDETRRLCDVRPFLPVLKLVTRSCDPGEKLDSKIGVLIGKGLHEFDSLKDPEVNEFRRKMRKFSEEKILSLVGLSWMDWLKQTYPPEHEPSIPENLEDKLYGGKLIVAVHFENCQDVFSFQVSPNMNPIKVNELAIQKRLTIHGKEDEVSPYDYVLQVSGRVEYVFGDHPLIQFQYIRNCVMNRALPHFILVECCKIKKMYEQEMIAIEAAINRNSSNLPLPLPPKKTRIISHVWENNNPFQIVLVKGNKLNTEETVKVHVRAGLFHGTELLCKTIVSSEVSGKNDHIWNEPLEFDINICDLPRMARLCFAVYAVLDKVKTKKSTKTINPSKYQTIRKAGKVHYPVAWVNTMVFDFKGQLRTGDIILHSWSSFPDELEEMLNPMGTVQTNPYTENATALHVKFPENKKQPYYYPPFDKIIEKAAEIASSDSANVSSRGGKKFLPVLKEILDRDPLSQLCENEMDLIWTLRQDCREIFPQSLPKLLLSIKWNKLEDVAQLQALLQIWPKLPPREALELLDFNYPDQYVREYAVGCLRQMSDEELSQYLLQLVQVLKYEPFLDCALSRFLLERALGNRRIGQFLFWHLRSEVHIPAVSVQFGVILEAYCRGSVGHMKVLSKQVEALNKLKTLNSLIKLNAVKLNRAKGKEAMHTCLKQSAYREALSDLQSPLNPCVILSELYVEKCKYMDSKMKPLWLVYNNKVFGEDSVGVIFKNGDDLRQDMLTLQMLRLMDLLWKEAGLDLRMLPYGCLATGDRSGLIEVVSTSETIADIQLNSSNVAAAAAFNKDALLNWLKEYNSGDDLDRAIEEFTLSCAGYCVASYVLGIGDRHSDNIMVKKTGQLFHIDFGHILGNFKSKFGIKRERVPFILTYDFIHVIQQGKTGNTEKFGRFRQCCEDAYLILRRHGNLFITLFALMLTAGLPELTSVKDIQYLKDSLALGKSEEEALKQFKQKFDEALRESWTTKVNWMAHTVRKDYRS
T3 sequence (P27986 whole entry partner): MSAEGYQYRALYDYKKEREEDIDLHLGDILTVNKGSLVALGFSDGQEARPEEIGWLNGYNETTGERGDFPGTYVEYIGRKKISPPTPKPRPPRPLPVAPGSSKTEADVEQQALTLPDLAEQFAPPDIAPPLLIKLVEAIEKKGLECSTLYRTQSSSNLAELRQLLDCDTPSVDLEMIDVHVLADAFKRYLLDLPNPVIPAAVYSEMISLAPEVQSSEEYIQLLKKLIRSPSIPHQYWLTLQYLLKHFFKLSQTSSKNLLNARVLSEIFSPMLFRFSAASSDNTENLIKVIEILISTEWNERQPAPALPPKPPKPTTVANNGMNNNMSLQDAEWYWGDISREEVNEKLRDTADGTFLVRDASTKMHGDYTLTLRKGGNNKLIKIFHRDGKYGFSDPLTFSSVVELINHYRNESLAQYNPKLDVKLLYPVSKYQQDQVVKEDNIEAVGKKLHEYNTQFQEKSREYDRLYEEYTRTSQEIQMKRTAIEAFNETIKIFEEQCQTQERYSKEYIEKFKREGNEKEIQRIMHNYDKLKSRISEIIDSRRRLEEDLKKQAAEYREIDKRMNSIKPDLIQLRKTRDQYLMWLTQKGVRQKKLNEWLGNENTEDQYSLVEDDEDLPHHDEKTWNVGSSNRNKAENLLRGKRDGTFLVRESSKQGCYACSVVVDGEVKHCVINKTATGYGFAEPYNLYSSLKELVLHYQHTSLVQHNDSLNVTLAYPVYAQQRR
What is called IC50 is the concentration at which inhibition is half-maximal. In the case of `CC(C)Oc1ccc(-c2nn([C@@H](C)c3oc4ccc(F)cc4c(=O)c3-c3cccc(F)c3)c3ncnc(N)c23)cc1F` [TGR1202, reference compound], the concentration for half-maximal inhibition (IC50) was found to be 0.362 µM.

A further assay deals with T2, PI3Kδ (Homo sapiens, UniProt O00329).
T2 construct: purchased Invitrogen (US)
T2 sequence (O00329 whole entry): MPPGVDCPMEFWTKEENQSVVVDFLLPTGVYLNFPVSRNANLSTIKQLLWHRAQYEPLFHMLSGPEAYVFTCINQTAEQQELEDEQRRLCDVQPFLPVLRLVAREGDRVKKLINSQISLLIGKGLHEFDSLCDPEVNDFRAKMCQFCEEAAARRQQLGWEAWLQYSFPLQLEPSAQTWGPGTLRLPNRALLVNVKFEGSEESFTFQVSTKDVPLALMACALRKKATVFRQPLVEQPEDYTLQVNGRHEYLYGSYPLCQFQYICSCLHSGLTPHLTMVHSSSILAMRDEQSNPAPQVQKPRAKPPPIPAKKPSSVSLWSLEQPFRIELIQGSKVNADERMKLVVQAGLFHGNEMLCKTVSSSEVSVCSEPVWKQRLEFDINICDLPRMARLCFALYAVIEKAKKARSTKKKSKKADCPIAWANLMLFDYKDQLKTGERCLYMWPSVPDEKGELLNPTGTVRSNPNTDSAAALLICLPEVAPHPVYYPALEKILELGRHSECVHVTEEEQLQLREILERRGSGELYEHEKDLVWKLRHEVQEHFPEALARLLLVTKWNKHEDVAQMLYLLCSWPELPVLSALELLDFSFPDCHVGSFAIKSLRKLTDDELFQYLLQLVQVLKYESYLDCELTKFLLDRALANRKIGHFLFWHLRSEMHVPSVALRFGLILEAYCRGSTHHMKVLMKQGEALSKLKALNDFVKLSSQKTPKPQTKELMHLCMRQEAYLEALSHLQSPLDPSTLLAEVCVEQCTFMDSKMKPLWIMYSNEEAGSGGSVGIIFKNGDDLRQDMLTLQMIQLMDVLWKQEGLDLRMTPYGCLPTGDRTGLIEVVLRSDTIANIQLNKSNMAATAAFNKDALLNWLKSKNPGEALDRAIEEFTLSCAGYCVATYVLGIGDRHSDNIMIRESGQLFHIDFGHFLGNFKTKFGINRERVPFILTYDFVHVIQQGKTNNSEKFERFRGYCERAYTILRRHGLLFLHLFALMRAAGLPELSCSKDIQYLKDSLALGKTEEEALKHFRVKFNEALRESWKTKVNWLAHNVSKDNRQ
T2 sequence (P27986 whole entry partner): as the sequence (P27986 whole entry partner) above
The assay is described as follows: In vitro enzyme activity (ADP-Glo) against PI3Kδ. Format: biochemical. The settings on record: Table 2; ATP 50 μM, PIP2:PS 50 μM. As for the experimental part:
as §1, §2, §3, §4
Molecule `CCC(c1nc2cccc(F)c2c(=O)n1C1CC1)n1nc(-c2ccc(OC)cc2)c2c(N)ncnc21` (stereo not drawn) [Compound 40, 2-(1-(4-amino-3-(4-methoxyphenyl)-1H-pyrazolo [3,4-d]pyrimidin-1-yl)propyl)-3-cyclopropyl-5-fluoroquinazolin-4(3H)-one] gave a half-maximal inhibitory concentration (IC50) of 0.0289 µM.
Still for that read-out and setting: under `CC[C@H](c1nc2cccc(F)c2c(=O)n1C1CC1)n1nc(-c2ccc(OC)c(F)c2)c2c(N)ncnc21` [Compound 82, 2-((R)-1-(4-amino-3-(3-fluoro-4-methoxyphenyl)-1H-pyrazolo [3,4-d]pyrimidin-1-yl)propyl)-3-cyclopropyl-5-fluoroquinazolin-4(3H)-one] stands 0.0367 µM.
In the case of `CC(=O)Nc1ccc(-c2nn(C(C)c3nc4cccc(F)c4c(=O)n3C3CCC3)c3ncnc(N)c23)cc1` (stereo not drawn) [Compound 53, N-(4-(4-amino-1-(1-(3-cyclobutyl-5-fluoro-4-oxo-3,4-dihydroquinazolin-2-yl)ethyl)-1H-pyrazolo[3,4-d]pyrimidin-3-yl)phenyl)acetamide], half-maximal inhibition (IC50) required 0.0438 µM.
The same measure, in the same setting: under `COc1ccc(-c2nn(C(C)c3nc4ccccc4c(=O)n3C3CC3)c3ncnc(N)c23)cc1C` (stereo not drawn) [Compound 44, 2-(1-(4-amino-3-(4-methoxy-3-methylphenyl)-1H-pyrazolo [3,4-d]pyrimidin-1-yl)ethyl)-3-cyclopropylquinazolin-4(3H)-one] stands 0.0398 µM.
As for `CC(c1nc2cccc(F)c2c(=O)n1C1CCCC1)n1nc(-c2ccc3c(c2)OCO3)c2c(N)ncnc21` (stereo not drawn) [Compound 46, 2-(1-(4-amino-3-(benzo[d][1,3]dioxol-5-yl)-1H-pyrazolo [3,4-d]pyrimidin-1-yl)ethyl)-3-cyclopentyl-5-fluoroquinazolin-4(3H)-one], inhibition was half-maximal at 0.0347 µM (IC50).
On to `COc1ccc(-c2nn(C(C)c3nc4cccc(F)c4c(=O)n3C3CCC3)c3ncnc(N)c23)cn1` (stereo not drawn) [Compound 54, 2-(1-(4-amino-3-(6-methoxypyridin-3-yl)-1H-pyrazolo [3,4-d]pyrimidin-1-yl)ethyl)-3-cyclobutyl-5-fluoroquinazolin-4(3H)-one], for which the IC50 came out at 0.039 µM.
As for `CCC(c1nc2cc(F)c(F)cc2c(=O)n1C1CC1)n1nc(-c2ccc(OC)c(F)c2)c2c(N)ncnc21` (stereo not drawn) [Compound 56, 2-(1-(4-amino-3-(3-fluoro-4-methoxyphenyl)-1H-pyrazolo [3,4-d]pyrimidin-1-yl)propyl)-3-cyclopropyl-6,7-difluoroquinazolin-4(3H)-one], 0.0567 µM corresponded to half-maximal inhibition (IC50).
The same measure, in the same setting: under `COc1ccc(-c2nn(C(C)c3nc4cccc(F)c4c(=O)n3C3CCC3)c3ncnc(N)c23)cc1C` (stereo not drawn) [Compound 34, 2-(1-(4-amino-3-(4-methoxy-3-methylphenyl)-1H-pyrazolo [3,4-d]pyrimidin-1-yl)ethyl)-3-cyclobutyl-5-fluoroquinazolin-4(3H)-one] stands 0.0418 µM.
With `Cc1ccc(-c2nn(C(C)c3nc4cccc(F)c4c(=O)n3C3CCCC3)c3ncnc(N)c23)cc1F` (stereo not drawn) [Compound 25, 2-(1-(4-amino-3-(3-fluoro-4-methylphenyl)-1H-pyrazolo [3,4-d]pyrimidin-1-yl)ethyl)-3-cyclopentyl-5-fluoroquinazolin-4(3H)-one], the half-maximal inhibitory concentration (IC50) was found to be 0.0175 µM.
The same measure, in the same setting: for `Cc1ccc(-c2nn(C(C)c3nc4ccc(F)cc4c(=O)n3C3CC3)c3ncnc(N)c23)cc1F` (stereo not drawn) [Compound 43, 2-(1-(4-amino-3-(3-fluoro-4-methylphenyl)-1H-pyrazolo [3,4-d]pyrimidin-1-yl)ethyl)-3-cyclopropyl-6-fluoroquinazolin-4-(3H)-one] the value was 0.0273 µM; for `CC(c1nc2cccc(F)c2c(=O)n1C1CCCC1)n1nc(-c2cccc(F)c2)c2c(N)ncnc21` (stereo not drawn) [Compound 12, 2-(1-(4-amino-3-(3-fluorophenyl)-1H-pyrazolo [3,4-d]pyrimidin-1-yl)ethyl)-3-cyclopentyl-5-fluoroquinazolin-4(3H)-one], 0.082 µM.
Still for that read-out and setting: for `CCC(c1nc2cccc(F)c2c(=O)n1C1CC1)n1nc(-c2ccc(OC)nc2)c2c(N)ncnc21` (stereo not drawn) [Compound 50, 2-(1-(4-amino-3-(6-methoxypyridin-3-yl)-1H-pyrazolo [3,4-d]pyrimidin-1-yl)propyl)-3-cyclopropyl-5-fluoroquinazolin-4(3H)-one] the value was 0.0485 µM; for `CC(C)c1ccc(-c2nn(C(C)c3nc4cccc(F)c4c(=O)n3C3CCC3)c3ncnc(N)c23)cc1` (stereo not drawn) [Compound 28, 2-(1-(4-amino-3-(4-isopropylphenyl)-1H-pyrazolo [3,4-d]pyrimidin-1-yl)ethyl)-3-cyclobutyl-5-fluoroquinazolin-4(3H)-one], 0.0833 µM; for `CC(c1nc2cccc(F)c2c(=O)n1C1CCCC1)n1nc(-c2cnc3ccccc3c2)c2c(N)ncnc21` (stereo not drawn) [Compound 26, 2-(1-(4-amino-3-(quinolin-3-yl)-1H-pyrazolo [3,4-d]pyrimidin-1-yl)ethyl)-3-cyclopentyl-5-fluoroquinazolin-4(3H)-one], 0.0557 µM.
Molecule `COc1ccc(-c2nn(C(C)c3nc4c(Cl)cccc4c(=O)n3C3CCC3)c3ncnc(N)c23)cc1F` (stereo not drawn) [Compound 29, 2-(1-(4-amino-3-(3-fluoro-4-methoxyphenyl)-1H-pyrazolo [3,4-d]pyrimidin-1-yl)ethyl)-8-chloro-3-cyclobutylquinazolin-4(3H)-one] came in with an IC50 of 0.0773 µM.
Same read-out and setting: for `COc1ccc(-c2nn(C(C)c3nc4cccc(F)c4c(=O)n3C3CCCC3)c3ncnc(N)c23)cc1C` (stereo not drawn) [Compound 36, 2-(1-(4-amino-3-(4-methoxy-3-methylphenyl)-1H-pyrazolo [3,4-d]pyrimidin-1-yl)ethyl)-3-cyclopentyl-5-fluoroquinazolin-4(3H)-one] the value was 0.0162 µM; for `CCC(c1nc2cccc(F)c2c(=O)n1C1CC1)n1nc(-c2ccc(OC)c(OC)c2)c2c(N)ncnc21` (stereo not drawn) [Compound 47, 2-(1-(4-amino-3-(3,4-dimethoxyphenyl)-1H-pyrazolo [3,4-d]pyrimidin-1-yl)propyl)-3-cyclopropyl-5-fluoroquinazolin-4(3H)-one], 0.0321 µM; for `CC(c1nc2cccc(F)c2c(=O)n1C1CCC1)n1nc(-c2ccc3c(c2)OCO3)c2c(N)ncnc21` (stereo not drawn) [Compound 35, 2-(1-(4-amino-3-(benzo[d][1,3]dioxol-5-yl)-1H-pyrazolo [3,4-d]pyrimidin-1-yl)ethyl)-3-cyclobutyl-5-fluoroquinazolin-4(3H)-one], 0.0262 µM.
The molecule `CC(C)c1ccc(-c2nn(C(C)c3nc4cccc(F)c4c(=O)n3C3CCCC3)c3ncnc(N)c23)cc1` (stereo not drawn) [Compound 24, 2-(1-(4-amino-3-(4-isopropylphenyl)-1H-pyrazolo [3,4-d]pyrimidin-1-yl)ethyl)-3-cyclopentyl-5-fluoroquinazolin-4(3H)-one] displayed an IC50 of 0.0215 µM.
Same read-out and setting: under `COc1ccc(-c2nn(C(C)c3nc4ccccc4c(=O)n3C3CCC3)c3ncnc(N)c23)cc1C` (stereo not drawn) [Compound 39, 2-(1-(4-amino-3-(4-methoxy-3-methylphenyl)-1H-pyrazolo [3,4-d]pyrimidin-1-yl)ethyl)-3-cyclobutylquinazolin-4(3H)-one] stands 0.0235 µM; under `COc1ccc(-c2nn(Cc3nc4cccc(F)c4c(=O)n3C3CCC3)c3ncnc(N)c23)cc1F` [Compound 7, 2-((4-amino-3-(3-fluoro-4-methoxyphenyl)-1H-pyrazolo [3,4-d]pyrimidin-1-yl)methyl)-3-cyclobutyl-5-fluoroquinazolin-4(3H)-one], 0.0999 µM; under `COc1ccc(-c2nn(C(C)c3nc4ccccc4c(=O)n3C3CC3)c3ncnc(N)c23)cc1` (stereo not drawn) [Compound 45, 2-(1-(4-amino-3-(4-methoxyphenyl)-1H-pyrazolo [3,4-d]pyrimidin-1-yl)ethyl)-3-cyclopropylquinazolin-4(3H)-one], 0.0272 µM.

Another assay has as its target T3, PI3Kβ (Homo sapiens, UniProt P42338).
T3 construct: purchased sigma (US)
The assay is described as follows: In vitro enzyme activity (ADP-Glo) against PI3Kβ. The settings on record: Table 3; ATP 10 μM, PIP2:PS 50 μM; read-out: IC50 PIK3β. Format: biochemical. On the procedure: as §1, §2, §3, §4
For `CC(C)Oc1ccc(-c2nn([C@@H](C)c3oc4ccc(F)cc4c(=O)c3-c3cccc(F)c3)c3ncnc(N)c23)cc1F` [TGR1202, reference compound], the IC50 was > 10 µM.

The record behind these values is US12221448B2, “Selective PI3Kδ inhibitor and use thereof” (TARAPEUTICS SCIENCE INC., priority 2018, dated 2025).
